Data on 13 molecules can be found in ChEMBL document CHEMBL1148100, “Structure-activity relationships of norditerpenoid alkaloids occurring in toxic larkspur (Delphinium) species” (J Nat Prod, 1995).

This series in a line: Toxicity in iv dosed Swiss-Webster mouse. Type of series: organism-based. The note with it: in vivo.

Consider `CCN1C[C@]2(COC(=O)c3ccccc3N3C(=O)CC(C)C3=O)CC[C@H](OC)[C@]34C1[C@](O)([C@@H](OC)[C@H]23)[C@@]1(O)C[C@H](OC)[C@H]2C[C@@H]4[C@@H]1[C@H]2O` (stereo partly drawn), for which the LD50 (commonly the dose at which mortality reaches 50%) came out at 4 mg/kg.
Molecule `CO[C@H]1[C@@H]2C[C@@H]3[C@H]1[C@](O)(C[C@@H]2OC)[C@]1(O)C2NC[C@]4(COC(=O)c5ccccc5N5C(=O)CC(C)C5=O)CC[C@H](OC)[C@@]23[C@@H]4[C@@H]1OC` (stereo partly drawn) yielded an LD50 of 100 mg/kg.
The result for `CO[C@H]1[C@@H]2C[C@]3(O)[C@H]1[C@@]1(C[C@@H]2OC)OCO[C@]12C1NC[C@]4(C)CC[C@H](OC)[C@@]13[C@@H]4[C@@H]2OC(C)=O` reads 210 mg/kg; that for `CO[C@H]1[C@@H]2C[C@@H]3[C@H]1[C@](O)(C[C@@H]2OC)[C@]1(O)C2N=C[C@]4(COC(=O)c5ccccc5N5C(=O)CC(C)C5=O)CC[C@H](OC)[C@@]23[C@@H]4[C@@H]1OC` (stereo partly drawn) [ANHWEIDELPHININE], more than 177 mg/kg.
Take `CCN1C[C@]2(COC(=O)c3ccccc3N)CC[C@H](OC)[C@]34C1[C@](O)([C@@H](OC)[C@H]23)[C@@]1(O)C[C@H](OC)[C@H]2C[C@@H]4[C@@H]1[C@H]2OC` [ANTHRANOYLLYCOCTONINE]: the median lethal dose (LD50) was 20.8 mg/kg.
For `CCN1C[C@]2(COC(=O)c3ccccc3N3C(=O)CC(C)C3=O)CC[C@H](OC)[C@]34C1[C@](O)([C@@H](OC)[C@H]23)[C@@]1(O)C[C@H](OC)[C@H]2C[C@@H]4[C@@H]1C2=O` (stereo partly drawn) [BARBININE], the LD50 was 57 mg/kg.
Take `CCN1C[C@]2(C)CC[C@H](OC)[C@@]34C1[C@]1(OCO[C@@]15C[C@H](OC)[C@H]1C[C@]3(O)[C@@H]5[C@H]1OC)[C@@H](OC(C)=O)[C@H]24` [DELTALINE]: the LD50 came to 200 mg/kg.
On to `CCN1C[C@]2(C)CC[C@H](OC)[C@@]34C1[C@]1(OCO[C@@]15C[C@H](OC)[C@H]1C[C@]3(O)[C@@H]5[C@H]1O)[C@@H](OC(C)=O)[C@H]24` [DICTYOCARPINE], for which the LD50 was determined as 283 mg/kg.
Molecule `CCN1C[C@]2(COC(=O)c3ccccc3N3C(=O)C[C@H](C)C3=O)CC[C@H](OC)[C@@]34C1[C@@]1(OCO[C@@]15C[C@H](OC)[C@H]1C[C@@H]3[C@@H]5[C@H]1OC)[C@@H](OC)[C@H]24` [ELATINE] showed an LD50 of 9.2 mg/kg.
The result for `CCN1C[C@]2(CO)CC[C@H](OC)[C@@]34[C@@H]5C[C@H]6[C@H](OC)[C@@H]5[C@](O)(C[C@@H]6OC)[C@](O)([C@@H](OC)[C@H]23)[C@@H]14` [LYCOCTONINE] reads 444 mg/kg.
`CCN1C[C@]2(COC(=O)c3ccccc3N3C(=O)C[C@H](C)C3=O)CC[C@H](OC)[C@@]34[C@@H]5C[C@H]6[C@H](OC)[C@@H]5[C@](O)(C[C@@H]6OC)[C@](O)([C@@H](OC)[C@H]23)[C@@H]14` [METHYLLYCACONITINE] showed an LD50 of 7.5 mg/kg.
As for `CCN1C[C@]2(COC(=O)c3ccccc3N3C(=O)C[C@H](C)C3=O)CC[C@H](OC)[C@]34C5C[C@@H]6[C@@H](OC)C[C@@](O)(C5[C@H]6OC(C)=O)[C@](O)(C13)[C@@H](OC)C24` (stereo partly drawn) [NUDICAULINE], the figure is 2.7 mg/kg; as for `CO[C@H]1[C@@H]2C[C@@H]3[C@H]1[C@](O)(C[C@@H]2OC)[C@]1(O)C2NC(=O)[C@]4(COC(=O)c5ccccc5N5C(=O)CC(C)C5=O)CC[C@H](OC)[C@@]23[C@@H]4[C@@H]1OC` (stereo partly drawn) [ZALILINE], more than 230 mg/kg.
